Tests used:
[1] = tested on: rotenone-inhibited Complex I; assay: Complex I-bypass assay ((CI)-bypass assay), high-resolution respirometry O2 consumption; type: cell-based, human; details: Leigh (GM03672) fibroblasts, 0.5 μM rotenone, oxygen consumption rate; read-out: EC50 value, Complex I by-pass activity
Method: All high-resolution respirometry experiments were conducted using the Oroboros O2k-Fluorespirometer (Oroboros, Innsbruck, Austria). The Oroboros O2k-Fluorespirometer was calibrated daily using the air calibration protocol on DatLab 7.4 (Oroboros, Innsbruck, Austria). Prior to each experiment requiring the fluorescence module, the AmpR calibration protocol from DatLab 7.4 was used to calibrate the fluorescence signal. Initial data analysis, including setting of marks, was performed using DatLab 7.4.
Complex I-bypass activity was assessed using HRR to measure O2 consumption. Briefly, Leigh (GM03672) fibroblasts were harvested with trypsin, pelleted at 300×g centrifugation, and resuspended in prewarmed, complete MEM. Cells were added to each chamber via buffer replacement at a concentration of 1-2 million per mL. The chambers were closed to initiate measurement of O2 consumption. The slope negative signal, which is a derivative of O2 consumption, was allowed to stabilize over the course of several minutes. Using a Hamilton syringe to allow for continuous measurement of O2 consumption, glutamate (10 mM final concentration) and malate (0.1 mM final concentration) were added to the closed chamber through the central capillary of the stopper. The slope negative signal was stabilized for several minutes, and rotenone was added at a final concentration of 0.5 μM. One of Compounds 1 to 4 or Vatiquinone was added at increasing concentrations, allowing for several minutes of stabilization of the slope negative signal between titrations. Marks were set at signal plateaus in between titrations. Values were exported and analyzed using GraphPad Prism 9. […] Responsiveness of cells was confirmed with idebenone.
Statistical analysis was performed using GraphPad Prism 9. Complex I-bypass data were fit using nonlinear sigmoidal 4P fit. RET Assay data were analyzed by 2-way ANOVA using a p-value of 0.05.
The Complex 1-bypass assay ((CI)-bypass Assay) evaluates the capacity of compounds to donate electrons into the electron transport chain (ETC) when Complex I is impaired or otherwise deficient. Normally, electrons feed into the ETC through Complex I. In instances where Complex I is impaired, electrons must enter the ETC downstream of Complex I for oxidative phosphorylation (OXPHOS) to occur. Complex I is composed of 46 subunits, encoded by mitochondrial and nuclear genes. Due to its large size, Complex I mutations are a common cause of ETC dysfunction in mitochondrial diseases. Indeed, mutations in the genes that encode subunits for Complex I are important causes of Leigh and Leigh-like syndrome.
Using this assay, the ability of Compounds 1 to 4 and Vatiquinone to bypass rotenone-inhibited Complex I was determined. Rotenone is a widely used Complex I inhibitor and blocks the transfer of electrons from the iron-sulfur complexes on Complex I to ubiquinone. Thus, when rotenone is introduced to cells underdoing routine respiration, a decrease in oxygen consumption is observed, which is indicative of disrupted OXPHOS. The ability of Compounds 1 to 4 and Vatiquinone to “bypass” Complex I and restore OXPHOS is measured by an increase in oxygen consumption rate following addition of the compound to the chamber.
In executing this assay, in each instance, fibroblasts are added to each chamber of the Oroboros Oxygraph-2K (the “O2k”). The O2k generates two traces: 1) total oxygen consumption over time, 2) the rate of oxygen consumption over time (slope negative). Baseline respiration is established for several minutes by allowing the slope negative to stabilize. Rotenone is introduced to each chamber at a final concentration of 0.5 μM. The addition of rotenone is expected to cause a marked reduction of OXPHOS as measured by a decreased rate of oxygen consumption. Then the test article (i.e., in this case one of Compounds 1 to 4 or Vatiquinone) is added to the chamber. […]

[2] = tested on: Leigh syndrome (GM03672) fibroblasts; assay: RSL3 cytoprotection assay, Leigh fibroblasts; type: cell-based, human; details: 375 nM RSL3, 10-1000 nM compound, 4 h
Method: Patient fibroblasts were acquired from Coriell Institute for Medical Research (Camden, NJ, USA). GM03672 is an untransformed fibroblast cell line from a Leigh syndrome patient carrying an unknown mutation. GM08402 is an untransformed fibroblast from an apparently healthy individual. Cells were cultured at 37° C. at 5% CO2 in Eagle's Minimum Essential Medium (MEM, Corning), which was supplemented with Earle's salts and non-essential amino acids, 15% qualified fetal bovine serum, and 1% penicillin/streptomycin ([…]) to yield “Complete MEM.”
To initiate the RSL3 cytoprotection experiment, Healthy (GM08402) and Leigh syndrome (GM03672) fibroblasts were resuspended in Complete MEM. Cells were seeded at 10,000 cells per well in a clear, tissue cultured-treated, 96-well plate and incubated at 37° C. overnight. Following the incubation, supernatant was manually aspirated, taking care not to disrupt cells. […]. Luminescence units were quantified by GEN5 software on a BioTek SYNERGY neo2 plate reader (LUM filter).
RSL3 is an inhibitor of the enzyme glutathione peroxidase 4 (GPX4), which decreases lipid peroxides. RSL3 inhibition of GPX4 induces ferroptosis through iron-dependent accumulation of lipid ROS. In this assay, Healthy or Leigh fibroblasts were treated for 4 hours with RSL3 to induce ferroptosis or left untreated. Endogenous ATP levels were measured as an indicator of cellular viability using a commercially available kit (CellTiter-Glo® 2.0 Cell Viability Assay (Promega)).
[…]. […] Briefly, ferroptosis was induced with 1 μM RSL3 in healthy fibroblast cells and 375 nM RSL3 in fibroblasts from a patient with Leigh syndrome.
A preliminary experiment was performed to determine the effect of RSL3 injury on the fibroblasts of a healthy individual (cell line: GM08402) and the fibroblasts of a patient diagnosed with Leigh syndrome (cell line: GM03672).

`CC1=C(C)C(=O)C(CC[C@@](C)(O)COCCC[Si](C)(C)C)=C(C)C1=O` [Compound 3] was tested, and the EC50 [1] was roughly 3.41 µM and the “relative anti-ferroptosis properties (comparison between test articles)” value (from here on “relative anti-ferroptosis properties”) [2] was “superior to Compounds 1, 4 and Vatiquinone”.

`CC1=C(C)C(=O)C(CC[C@](C)(O)CCCCCCCCC(F)(F)F)=C(C)C1=O` [Compound 4] was tested, and the EC50 [1] was roughly 8.8 µM and the “relative anti-ferroptosis properties” value [2] was “roughly equivalent in their anti-ferroptosis properties”.

With `CC1=C(C)C(=O)C(CC[C@@](C)(O)CC/C=C(\C)CCC=C(F)F)=C(C)C1=O` [Compound 2] the EC50 [1] was roughly 4.09 µM and the “relative anti-ferroptosis properties” value [2] was “superior to Compounds 1, 4 and Vatiquinone”.
